Consider 1 molecule from patent publication US5476874A, “New HIV protease inhibitors” (Merck & Co., Inc., priority 1994, dated 1995).

In the assay the target is T1, HIV protease (Human immunodeficiency virus type 1 group M subtype B, UniProt P04585).
T1 construct: the protease expressed in Escherichia coli; made in house; host or cells: Escherichia coli
Put plainly: Assay for Inhibition of Microbial Expressed HIV Protease. It counts as biochemical. Particulars: protease expressed in Escherichia coli; peptide substrate Val-Ser-Gln-Asn-(betanaphthyl)Ala-Pro-Ile-Val; 50 mM Na acetate, pH 5.5, 30° C., 1 hour; HPLC readout. How it is done: Assay for Inhibition of Microbial Expressed HIV Protease
Inhibition studies of the reaction of the protease expressed in Escherichia coli with a peptide substrate [Val-Ser-Gln-Asn-(betanaphthyl)Ala-Pro-Ile-Val, 0.5 mg/mL at the time the reaction is initiated] were in 50 mM Na acetate, pH 5.5, at 30° C. for 1 hour. Various concentrations of inhibitor in 1.0 ul DMSO were added to 25 ul of the peptide solution in water. The reaction is initiated by the addition of 15 ul of 0.33 nM protease […] in a solution of 0.133 M Na acetate pH 5.5 and 0.26% bovine serum albumin. The reaction was quenched with 160 ul of 5% phosphoric acid. Products of the reaction were separated by HPLC (VYDAC wide pore 5 cm C-18 reverse phase, acetonitrile gradient, 0.1% phosphoric acid). The extent of inhibition of the reaction was determined from the peak heights of the products.

A word on the IC50: it is the concentration needed to halve the response being measured. Read a low IC50 as higher potency.

In the case of `CC(C)CN(CC(O)CC(Cc1ccccc1)C(=O)NC1c2ccccc2CC1O)C(=O)OCc1ccccc1` [Compound A, N-(2'(R)-hydroxy-1'(S)-indanyl)-2(R)-phenylmethyl-4(S)-hydroxy-5-[((2'''-methyl)propyl)-benzyloxycarbonyl]-amino-pentaneamide], the IC50 was in the range of 8 to 9 nM.
